One assay deals with T1, human SGLT1 (Homo sapiens, UniProt P13866).
T1 construct: expressed in transfected cells; host or cells: CHO-K1
T1 sequence (P13866 1-664): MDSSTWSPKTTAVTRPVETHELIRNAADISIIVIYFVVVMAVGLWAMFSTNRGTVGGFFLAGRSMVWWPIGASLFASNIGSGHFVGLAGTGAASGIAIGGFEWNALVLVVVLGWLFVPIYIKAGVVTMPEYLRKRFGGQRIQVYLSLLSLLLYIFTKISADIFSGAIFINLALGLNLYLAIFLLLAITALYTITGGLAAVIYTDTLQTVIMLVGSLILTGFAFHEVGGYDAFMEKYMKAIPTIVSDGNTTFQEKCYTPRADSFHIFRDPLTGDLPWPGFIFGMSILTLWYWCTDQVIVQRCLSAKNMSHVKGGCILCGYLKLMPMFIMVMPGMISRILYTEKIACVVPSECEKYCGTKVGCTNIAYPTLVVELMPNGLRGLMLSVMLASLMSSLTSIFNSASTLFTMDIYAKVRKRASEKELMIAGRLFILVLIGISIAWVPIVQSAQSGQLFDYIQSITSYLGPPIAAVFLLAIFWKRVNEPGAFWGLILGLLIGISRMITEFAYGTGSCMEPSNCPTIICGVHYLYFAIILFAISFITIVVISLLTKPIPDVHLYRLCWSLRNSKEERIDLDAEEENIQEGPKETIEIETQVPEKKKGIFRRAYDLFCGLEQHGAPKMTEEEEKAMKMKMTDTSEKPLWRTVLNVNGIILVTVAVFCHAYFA
As to the kind of experiment: SGLT1 assay: Na-dependent 14C-AMG uptake in CHO-K1 cells stably expressing human SGLT1. In kind it is cell-based. Particulars: for pIC50: 500 μM AMG, 2 hours at 37° C. Summed up: (§1)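 CHO-K1 cells stably expressing human SGLT1 or SGLT2, pretreated 24 h with 10 mM Na-butyrate, were exposed 10 min to compound (0.001-10 μM) in Na-containing HEPES/Tris buffer pH 7.4. Uptake of ^14C-AMG (500 μM final) ran 2 h at 37° C, then Na-dependent uptake was counted by scintillation.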

Another assay addresses T2, human SGLT2 (Homo sapiens, UniProt P31639).
T2 construct: expressed in transfected cells; host or cells: CHO-K1
T2 sequence (P31639 1-672): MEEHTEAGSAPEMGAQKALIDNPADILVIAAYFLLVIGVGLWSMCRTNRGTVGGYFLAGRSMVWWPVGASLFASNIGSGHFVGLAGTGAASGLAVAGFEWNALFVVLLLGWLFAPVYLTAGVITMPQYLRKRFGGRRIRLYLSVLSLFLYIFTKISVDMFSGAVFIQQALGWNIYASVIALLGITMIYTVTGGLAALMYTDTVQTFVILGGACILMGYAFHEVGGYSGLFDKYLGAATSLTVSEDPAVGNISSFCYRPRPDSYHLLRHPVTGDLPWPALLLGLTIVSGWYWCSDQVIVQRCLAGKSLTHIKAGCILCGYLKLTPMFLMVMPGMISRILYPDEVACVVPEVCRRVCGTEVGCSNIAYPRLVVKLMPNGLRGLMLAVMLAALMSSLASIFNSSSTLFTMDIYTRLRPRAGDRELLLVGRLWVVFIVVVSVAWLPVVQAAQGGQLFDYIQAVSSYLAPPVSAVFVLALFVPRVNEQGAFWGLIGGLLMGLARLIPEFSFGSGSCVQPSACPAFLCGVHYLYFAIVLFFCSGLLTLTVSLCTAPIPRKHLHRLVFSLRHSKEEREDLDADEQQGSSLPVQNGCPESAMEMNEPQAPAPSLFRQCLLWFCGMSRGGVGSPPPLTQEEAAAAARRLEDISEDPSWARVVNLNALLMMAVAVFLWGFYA
The experiment in a line: SGLT2 assay: Na-dependent 14C-AMG uptake in CHO-K1 cells stably expressing human SGLT2. In kind it is cell-based. Particulars: for pIC50: 500 μM AMG, 2 hours at 37° C. In short, it runs like this:
as §1

SMILES strings stand for the structures. pIC50: −log10 of the molar value.

The term pIC50 denotes −log10 of the IC50, conventionally taken in molar units. A lower pIC50 goes with a high IC50. For orientation: inhibition means the change of the read-out against control, counted positive when it falls.

For `CCOc1cc(OC)c(Cc2ccc3c(c2)CC3)cc1[C@@H]1O[C@H](CO)[C@@H](F)[C@H](O)[C@H]1O` [Compound 137], the negative-log IC50 (pIC50) against human SGLT1 is 7.70; on human SGLT2 it was 9.00.
Consider `COc1ccc(Cc2ccc3c(c2)CC3)cc1[C@@H]1O[C@H](CO)[C@@H](O)[C@H](O)[C@H]1O` [Compound 26, (2S,3R,4R,5S,6R)-2-(5-(bicyclo[4.2.0]octa-1(6),2,4-trien-3-ylmethyl)-2-methoxyphenyl)-6-(hydroxymethyl)oxane-3,4,5-triol], for which, at human SGLT1, the inhibition at 0.3 µM came out at 5%. Moreover, on human SGLT2, the inhibition at 0.03 µM came out at 58%.
Turning to `CCOc1cc(Cl)c(Cc2ccc3c(c2)CC3)cc1[C@@H]1O[C@H](CO)[C@@H](O)[C@H](O)[C@H]1O` [Compound 115], the pIC50 was 7.66 at human SGLT1 and 9.00 at human SGLT2.
Take `[2H]C1([2H])Cc2ccc(Cc3cc([C@@H]4O[C@H](CO)[C@@H](O)[C@H](O)[C@H]4O)c(F)cc3CC)cc21` [Compound 73, (2S,3R,4R,5S,6R)-2-(5-((2,2-dideuterium-1,2-dihydrocyclobutabenzen-4-yl)methyl)-4-ethyl-2-fluorophenyl)-6-(hydroxymethyl)-tetrahydro-2H-pyran-3,4,5-triol]: the pIC50 at human SGLT1 was 7.80; against human SGLT2 it was 8.52.
On to `Cc1ccc([C@@H]2O[C@H](CO)[C@@H](O)[C@H](O)[C@H]2O)cc1Cc1ccc2c(c1)CC2` [Compound 1, (2S,3R,4R,5S,6R)-2-(3-((1,2-dihydrocyclobutabenzen-4-yl)methyl)-4-methylphenyl)-6-(hydroxymethyl)-tetrahydro-2H-pyran-3,4,5-triol], for which the pIC50 is 7.48 at human SGLT1 and 9.00 on human SGLT2.
`CCc1cc(OC)c([C@@H]2O[C@H](CO)[C@@H](O)[C@H](O)[C@H]2O)cc1Cc1ccc2c(c1)CC2` [Compound 13, (2S,3R,4R,5S,6R)-2-(5-((1,2-dihydrocyclobutabenzen-4-yl)methyl)-4-ethyl-2-methoxyphenyl)-6-(hydroxymethyl)-tetrahydro-2H-pyran-3,4,5-triol]: the values for the negative-log IC50 (pIC50) at human SGLT1 and at human SGLT2 were 7.49 and 9.00, respectively.
Taken in the same sequence, the figures for `CCOc1cc(C)c(Cc2ccc3c(c2)CC3)cc1[C@@H]1O[C@H](CO)[C@@H](O)[C@H](O)[C@H]1O` [Compound 113] were 7.08 and 9.00.
Taken in the same sequence, the figures for `[2H]C1([2H])Cc2ccc(Cc3cc([C@@H]4O[C@H](CO)[C@@H](O)[C@H](O)[C@H]4O)ccc3OC)cc21` (single isomer, unassigned) [Compound 64] were 7.03 and 8.40.
With `CCc1cc(O)c([C@@H]2O[C@H](CO)[C@@H](F)[C@H](O)[C@H]2O)cc1Cc1ccc2c(c1)CC2` [Compound 127], the values for the pIC50 at human SGLT1 and on human SGLT2 were 9.00 and 8.70, respectively.
Consider `[2H]C1([2H])Cc2cc(Cc3cc([C@@H]4O[C@H](CO)[C@@H](O)[C@H](O)[C@H]4O)ccc3CC)ccc21` [Compound 87, (2S,3R,4R,5S,6R)-2-(3-((1,1-dideuterium-1,2-dihydrocyclo-butabenzen-4-yl)methyl)-4-ethylphenyl)-6-(hydroxymethyl)-tetrahydro-2H-pyran-3,4,5-triol], for which the negative-log IC50 (pIC50) against human SGLT1 is 7.74; at human SGLT2, 8.70.
As to `N#Cc1cc(O)c([C@@H]2O[C@H](CO)[C@@H](O)[C@H](O)[C@H]2O)cc1Cc1ccc2c(c1)CC2` [Compound 17, 2-((1,2-dihydrocyclobutabenzen-4-yl)methyl)-5-hydroxy-4-((2S,3R,4R,5S,6R)-3,4,5-trihydroxy-6-(hydroxymethyl)-tetrahydro-2H-pyran-2-yl)benzonitrile], the pIC50 on human SGLT1 was 6.72; at human SGLT2, 9.00.
Turning to `[2H]C([2H])(c1ccc2c(c1)CC2)c1cc([C@@H]2O[C@H](CO)[C@@H](O)[C@H](O)[C@H]2O)c(OC)cc1Cl` [Compound 56, (2S,3R,4R,5S,6R)-2-(5-[bicyclo[4.2.0]octa-(6),2,4-trien-3-yl(dideuterium)methyl]-4-chloro-2-methoxyphenyl)-6-(hydroxymethyl)oxane-3,4,5-triol], the negative logarithm of the IC50 (pIC50) against human SGLT1 is 7.03; against human SGLT2 it was 8.70.
On to `COc1cc(O)c([C@@H]2O[C@H](CO)[C@@H](O)[C@H](O)[C@H]2O)cc1Cc1ccc2c(c1)CC2` [Compound 10, (2S,3R,4R,5S,6R)-2-(5-((1,2-dihydrocyclobutabenzen-4-yl)methyl)-2-hydroxy-4-methoxyphenyl)-6-(hydroxymethyl)-tetrahydro-2H-pyran-3,4,5-triol], for which the pIC50 is 8.30 at human SGLT1 and 9.00 at human SGLT2.
As to `[2H]C([2H])(c1ccc2c(c1)CC2)c1cc([C@@H]2O[C@H](CO)[C@@H](O)[C@H](O)[C@H]2O)c(OC)cc1CC` [Compound 60, (2S,3R,4R,5S,6R)-2-(5-(dideuterium(1,2-dihydrocyclobutabenzen-4-yl)methyl)-4-ethyl-2-methoxyphenyl)-6-(hydroxymethyl)-tetrahydro-2H-pyran-3,4,5-triol], the pIC50 against human SGLT1 was 7.08; at human SGLT2 it was 8.52.
`COc1cc(OC)c([C@@H]2O[C@H](CO)[C@@H](F)[C@H](O)[C@H]2O)cc1Cc1ccc2c(c1)CC2` [Compound 136]: the values for the negative-log IC50 (pIC50) on human SGLT1 and on human SGLT2 were 8.05 and 9.00, respectively.
Turning to `CCOc1cc(OC)c(Cc2ccc3c(c2)CC3)cc1[C@@H]1O[C@H](CO)C(F)(F)[C@H](O)[C@H]1O` [Compound 109], the negative-log IC50 (pIC50) was 6.80 against human SGLT1 and 8.30 against human SGLT2.
In the case of `[2H]C1([2H])Cc2ccc(Cc3cc([C@@H]4O[C@H](CO)[C@@H](O)[C@H](O)[C@H]4O)c(OC)cc3Cl)cc21` [Compound 67, (2S,3R,4R,5S,6R)-2-(5-{[(8,8-dideuterium)bicyclo[4.2.0]octa-1(6),2,4-trien-3-yl]methyl}-4-chloro-2-methoxyphenyl)-6-(hydroxymethyl)oxane-3,4,5-triol], the pIC50 at human SGLT1 is 7.32; at human SGLT2, 8.70.
With `[2H]C1([2H])Cc2ccc(Cc3cc([C@@H]4O[C@H](CO)[C@@H](O)[C@H](O)[C@H]4O)c(OC)cc3CC)cc21` [Compound 69, (2S,3R,4R,5S,6R)-2-(5-[(8,8-Hz)bicyclo[4.2.0]octa-1(6),2,4-trien-3-ylmethyl]-4-ethyl-2-methoxyphenyl)-6-(hydroxymethyl)oxane-3,4,5-triol], the pIC50 against human SGLT1 was 7.30; against human SGLT2, 8.30.
As for `Cc1cc(Cc2ccc3c(c2)CC3)cc([C@@H]2O[C@H](CO)[C@@H](O)[C@H](O)[C@H]2O)c1O` [Compound 27, (2S,3R,4R,5S,6R)-2-(5-((1,2-dihydrocyclobutabenzen-4-yl)methyl)-2-hydroxy-3-methylphenyl)-6-(hydroxymethyl)-tetrahydro-2H-pyran-3,4,5-triol], the negative-log IC50 (pIC50) is 7.54 on human SGLT1 and 9.00 at human SGLT2.
In the case of `COc1ccc([C@@H]2O[C@H](CO)[C@@H](O)[C@H](O)[C@H]2O)cc1Cc1ccc2c(c1)CC2` [Compound 3, (2S,3R,4R,5S,6R)-2-(3-((1,2-dihydrocyclobutabenzen-4-yl)methyl)-4-methoxyphenyl)-6-(hydroxymethyl)-tetrahydro-2H-pyran-3,4,5-triol], the negative-log IC50 (pIC50) was 7.41 on human SGLT1 and 8.52 against human SGLT2.
As for `[2H]c1c(C)c(Cc2ccc3c(c2)CC3)cc([C@@H]2O[C@H](CO)[C@@H](O)[C@H](O)[C@H]2O)c1O` (single isomer, unassigned) [Compound 121], the negative-log IC50 (pIC50) against human SGLT1 is 7.96; on human SGLT2, 8.70.
`CN(C)c1ccc([C@@H]2O[C@H](CO)[C@@H](O)[C@H](O)[C@H]2O)cc1Cc1ccc2c(c1)CC2` [Compound 21, (2S,3R,4R,5S,6R)-2-(3-(bicyclo[4.2.0]octa-1(6),2,4-trien-3-ylmethyl)-4-(dimethylamino)phenyl)-6-(hydroxymethyl)oxane-3,4,8-triol] displayed an inhibition at 0.3 µM on human SGLT1 of 67%. Moreover, the inhibition at 0.03 µM on human SGLT2 was found to be 35%.
